# Test results from article PMC13083723 (Patterns, 2026).
# Test system: Vero-E6 cells
# Test: cells
# Format: cell-based
# Settings: Chlorocebus sabaeus, Vero C1008, 24 h, read-out: PL_Result
row,SMILES,activation at 10 µM
1,COc1nccnc1NS(=O)(=O)c1ccc(N)cc1 [SPE_K17205817],-0.746%
2,CC(C)C[C@@H](C(=O)N[C@@H](Cc1ccc(OCc2ccccc2)cc1)C(=O)NC(C)(C)C)N(C)Cc1ccc(C(C)(C)C)cc1 [SPE_K04426574],-3.22%
3,COc1ccn2ncc(-c3nc4[nH]nc(NC(=O)c5ccc(F)cc5)c4cc3F)c2c1 [SPE_K84068331],-16.5%
4,COc1[nH]c2ccc(F)cc2c1C(=O)OCC1CCN(CCNS(C)(=O)=O)CC1 [SPE_K62594868],-2.59%
5,CCN(CCNC(=O)Nc1ccccc1Br)c1cccc(C)c1 [SPE_K03665769],-3.7%
6,Cc1ccc(C)c(C(O)CNC(C)C)c1 (stereo not drawn) [SPE_A98083480],3.82%
7,CC(C)NCC(O)c1ccc(O)c(O)c1 (stereo not drawn) [SPE_A04322457],-1.28%
8,COc1ccc(Cl)c(Nc2nc3ccccc3nc2NS(=O)(=O)c2cccc(NC(=O)C(C)(C)N)c2)c1 [SPE_K49456274],-4.27%
9,COc1ccc(CNC(=O)c2sc3nc(C)cc(C)c3c2N)cc1 [SPE_K87727457],-11.5%
10,O=C(/C=C/C=C/c1ccc2c(c1)OCO2)N1CCCCC1 [SPE_K59522102],2.7%
11,CC(C)N(CCC(C(N)=O)(c1ccccc1)c1ccccn1)C(C)C (stereo not drawn) [SPE_A29734509],1.87%
12,C[C@@H]1C[C@H]2[C@@H]3C[C@H](F)C4=CC(=O)C=C[C@]4(C)[C@@]3(Cl)[C@@H](O)C[C@]2(C)[C@H]1C(=O)COC(=O)C(C)(C)C [SPE_K38003476],-1.81%
13,CC(=O)OCC(=O)[C@H]1CC[C@H]2[C@@H]3CC[C@H]4C[C@H](O)CC[C@]4(C)[C@H]3C(=O)C[C@]12C [SPE_K51751936],-4.71%
14,CC(=O)Nc1nc2c(Oc3cc(-c4ccc(C(F)(F)F)cc4)ncn3)cccc2s1 [SPE_K34185671],-12.4%
15,Cc1ccc2c(c1CCC(=O)O)CC[C@@H](NS(=O)(=O)c1ccc(Cl)cc1)C2 [SPE_K43975632],0.256%
16,CC(C)=CCC[C@](C)(O)[C@H]1CC[C@]2(C)[C@@H]1[C@H](O)C[C@@H]1[C@@]3(C)CC[C@H](O)C(C)(C)[C@@H]3CC[C@]12C [SPE_K60005752],-8.61%
17,CCCCCCCCCCCCCCCCCCO [SPE_K20501889],-5.89%
18,Nn1cnc2cc3ccccc3cc2c1=O [SPE_K31329721],-8.33%
19,COc1ccc2c(c1)nc([S+]([O-])Cc1ncc(C)c(OC)c1C)[n]2[Mg][n]1c([S+]([O-])Cc2ncc(C)c(OC)c2C)nc2cc(OC)ccc21 (stereo not drawn) [SPE_A56892734],-9.5%
20,CC1(C)CNc2cc(NC(=O)c3cccnc3NCc3ccncc3)ccc21 [SPE_K99616396],-4.48%
21,C[C@@H](N)[C@@H](O)c1ccccc1 [SPE_K27853494],-4.21%

row,SMILES,activation at 10 µM
1,CC(=O)NC1[C@@H](O)OC(CO)[C@@H](O)[C@H]1O (stereo partly drawn) [SPE_A92872453],-7.39%
2,Cc1cc(N2CCOCC2)ccc1Nc1nc(NC2CCCCC2)c2nc[nH]c2n1 [SPE_K45551181],-0.298%
3,CS(=O)(=O)c1ccc(-c2cn3ccccc3n2)cc1 [SPE_K45125084],-7.32%
4,CC(=O)Nc1ccc(C(=O)O)cc1 [SPE_K47195926],3.66%
5,C[C@]12CC[C@H](O)C[C@H]1CC[C@@H]1[C@@H]2CC[C@]2(C)[C@@](O)(c3ccoc3)CC[C@]12O [SPE_K11672787],-0.921%
6,O=c1c2ccccc2oc2ccccc12 [SPE_K27135764],4.69%
7,C/C(=C\c1csc(C)n1)[C@@H]1C[C@@H]2O[C@]2(C)CCC[C@H](C)[C@H](O)[C@@H](C)C(=O)C(C)(C)[C@@H](O)CC(=O)N1 [SPE_K03601870],-10.6%
8,O=C(O)c1ccc(-c2c[nH]c3ncc(-c4ccccc4)cc23)cc1C1CCCC1 [SPE_K14991967],-4.54%
9,C[C@@H]1CN(CC(=O)Nc2ccc3c(c2)Cc2cccc(-c4cc(=O)cc(N5CCOCC5)o4)c2S3)C[C@H](C)O1 [SPE_K36016295],15.1%
10,Cc1c(CN2CCN(C(=O)[C@H](C)O)CC2)sc2c(N3CCOCC3)nc(-c3cnc(N)nc3)nc12 [SPE_K23228615],-5.95%
11,Cc1coc2c1C(=O)C(=O)c1c-2ccc2c(C)cccc12 [SPE_K34073885],1.44%
12,Cc1cc(OCc2nnc(SC3CCCC3)n2-c2cccnc2)ccc1-c1ccc(S(C)(=O)=O)cc1 [SPE_K26253904],-0.282%
13,C[C@H](N)[C@H](O)c1cccc(O)c1 [SPE_K96253961],-12.2%
14,COc1cc(/C=C/C(N)=O)cc(OC)c1OC [SPE_K24507548],-1.45%
15,C#CCN(C)Cc1ccccc1 [SPE_K83597974],-2.77%
16,Nc1nc(=O)[nH]cc1F [SPE_K82143716],-8.79%
17,CN(CCCN1c2ccccc2CCc2ccccc21)CC(=O)c1ccc(Cl)cc1 [SPE_K82147103],-0.728%
18,O=C(NCc1ccc(Oc2ccccc2)cc1)c1nc(-c2cc(Br)c(O)c(Br)c2)no1 [SPE_K84892605],-10.4%
19,COC(=O)c1ccccc1O [SPE_K10103010],2.4%
20,CCC1(c2ncc[nH]2)Cc2ccccc2O1 (stereo not drawn) [SPE_A38747044],2.93%
21,Nc1ccn([C@H]2CC[C@@H](CO)O2)c(=O)n1 [SPE_K85925969],2.75%

row,SMILES,activation at 10 µM
1,CCCCCCCCCCCCCCCCO [SPE_K37203094],1.52%
2,c1ccc(C2CC2)c(OCC2=NCCN2)c1 [SPE_K54142781],-12.4%
3,CCCCCCCN(CC)CCCC(O)c1ccc(NS(C)(=O)=O)cc1 (stereo not drawn) [SPE_A74391928],-5.8%
4,CCN(CC)CC1CCCCN1CC(=O)N1c2ccccc2C(=O)Nc2cccnc21 (stereo not drawn) [SPE_A00520476],-3.51%
5,Nc1ccc(S(=O)(=O)Nc2ccnn2-c2ccccc2)cc1 [SPE_K10671814],-1.85%
6,CCCCCCCC/C=C\CCCCCCCC(=O)NCCO [SPE_K66956375],-6.58%
7,COc1ccc(OC)c(C2C(C#N)=C(N)Oc3[nH]nc(-c4ccc5ccccc5c4)c32)c1 (stereo not drawn) [SPE_A67036568],-6.11%
8,O=C(NCCN1CCN(c2ncccn2)CC1)C12CC3CC(CC(C3)C1)C2 [SPE_K67789209],-11.4%
9,CC(=O)Nc1nc(C)c(-c2ccc(Cl)c(S(=O)(=O)NCCO)c2)s1 [SPE_K29395450],-9.8%
10,CC(C)(O)CC(=O)NCCn1ccc2ncnc(Nc3ccc(Oc4cccc(C(F)(F)F)c4)c(Cl)c3)c21 [SPE_K80343549],-7.02%
11,O=C(Cc1ccc(-c2ccc(OCCN3CCOCC3)cc2)cn1)NCc1ccccc1 [SPE_K29968218],-4.21%
12,CCCCCCCCCCCCCCCCCCCCCCCCCCCCO [SPE_K03083257],-15.2%
13,CC(=O)c1ccc(S(=O)(=O)NC(=O)NC2CCCCC2)cc1 [SPE_K52960356],6.72%
14,Cc1ccc(S(=O)(=O)/C=C/C#N)cc1 [SPE_K15025317],-2.64%
15,NCCCCCCCCCCNS(=O)(=O)c1cccc2c(Cl)cccc12 [SPE_K03301001],2.75%
16,CC(=O)[C@@]1(O)CC[C@H]2[C@@H]3C[C@H](C)C4=CC(=O)CC[C@]4(C)[C@H]3CC[C@@]21C [SPE_K99615199],-9.68%
17,O=C(O)COCCN1CCN(C(c2ccccc2)c2ccc(Cl)cc2)CC1 (stereo not drawn) [SPE_A42571354],-3.1%
18,COc1ccc2[nH]c3nnc(C)c-3c(NCCOCCO)c2c1 [SPE_K02460719],-9.99%
19,O=c1c(O)c(-c2cc(O)c(O)c(O)c2)oc2cc(O)cc(O)c12 [SPE_K43149758],-18.6%
20,CC(O)(C(=O)Nc1ccc(S(=O)(=O)c2ccccc2)cc1)C(F)(F)F (stereo not drawn) [SPE_A62209527],-3.22%
21,O=S(=O)(Cc1ccccc1)Nc1ccc(-c2ccc3c(cnn3-c3ccc(F)cc3)c2)c(C(F)(F)F)c1 [SPE_K29328421],-4.77%

row,SMILES,activation at 10 µM
1,O=C(Cn1ccnc1[N+](=O)[O-])NCCO [SPE_K96042922],-3.79%
2,Cc1c(NC(=O)c2cccnc2)c(=O)n(-c2ccccc2)n1C [SPE_K47407372],-10.1%
3,Clc1ccc(C(Cn2ccnc2)OCc2c(Cl)cccc2Cl)c(Cl)c1 (stereo not drawn) [SPE_A93353767],0.354%
4,Nc1ccc(C(=O)Oc2ccccc2)c(O)c1 [SPE_K73157543],-14.5%
5,CCOC(=O)c1cc(C#N)c(N2CCC(C(=O)NS(=O)(=O)Cc3ccccc3)CC2)nc1C [SPE_K77060810],-0.985%
6,Cc1ccc(=O)n(-c2ccccc2)c1 [SPE_K96862998],4.03%
7,Cc1cccc(NC(=O)c2ccc(C(F)(F)F)cc2C(=O)O)n1 [SPE_K47816470],-2.17%
8,O=C(Nc1ccc(S(=O)(=O)Nc2ccccc2Cl)c(Cl)c1)c1ccccn1 [SPE_K72687424],-10.9%
9,CCCCC/C=C\C/C=C\C/C=C\CCCCC(=O)O [SPE_K18059238],1.69%
10,COc1nc(C)nc(Cl)c1NC1=NCCN1 [SPE_K77771411],-3.03%
11,Nc1ccn([C@H]2C[C@H](O)[C@@H](CO)O2)c(=O)n1 [SPE_K91822704],0.471%
12,O=C1CCCN1CC#CCN1CCCC1 [SPE_K21936341],-3.09%
13,COc1c(C)cnc(Cn2cnc3c(Cl)nc(N)nc32)c1C [SPE_K51967704],-7.08%
14,CCCCNc1cc(C(=O)O)cc(S(N)(=O)=O)c1Oc1ccccc1 [SPE_K38197229],-2.26%
15,CCC(Oc1ccc(Cl)cc1)C(=O)OC1CC2CCC(C1)N2C (stereo not drawn) [SPE_A92933783],-0.394%
16,C#C[C@]1(O)CC[C@H]2[C@@H]3CCC4=CC(=O)CCC4=C3C=C[C@@]21CC [SPE_K97472745],-10.6%
17,CN(C)C(=O)Oc1cc(OC(=O)N(C)C)cc(C(O)CNC(C)(C)C)c1 (stereo not drawn) [SPE_A17462676],-4.78%
18,CCCCc1nn(-c2ccccc2C(F)(F)F)c(=O)n1Cc1ccc(-c2ccccc2S(=O)(=O)NC(=O)c2sccc2C)cc1 [SPE_K39733634],-1.37%
19,CC(CCCCC(=O)Nc1ccc(C(F)(F)F)cc1)NCCc1c[nH]cn1 (stereo not drawn) [SPE_A66435872],38.2%
20,Fc1ccc(CN2CCC(Nc3ccc(C(F)(F)F)nn3)CC2)cc1F [SPE_K31802667],4.7%
21,COc1nc(C)cnc1NS(=O)(=O)c1cccnc1-c1ccc(-c2nnco2)cc1 [SPE_K31553034],-4.16%
